Read-outs that look alike come from different tables or passages of the source.
What was measured:
E. faecalis = assay type: cell-based; conditions: for MIC, Peptide: unmodified parent peptide
S. pyogenes = assay: Agarose dilution assay (MIC); assay type: cell-based; conditions: S. pyogenes strain SPY006
E. cloacae = assay type: cell-based
S. marcescens = assay type: cell-based
S. pneumoniae = assay: Agarose dilution assay (MIC); assay type: cell-based
bacterial isolates = assay: microbe, parasite or virus in culture; assay type: cell-based
S. epidermidis = assay type: cell-based; conditions: S. epidermidis strain SE003
E. coli = assay type: cell-based
[1] = test system: MSSA (Smith, ATCC # 19640); assay: In vivo efficacy, MSSA infection; set-up: species or system S. aureus; conditions: formulation D, 60 min post-infection, end of eight day observation
A. calcoaceticus = assay type: cell-based
S. maltophilia = assay type: cell-based
K. pneumoniae = assay type: cell-based
E. faecium = assay type: cell-based; conditions: E. faecium strain EFM003
P. aeruginosa = assay type: cell-based
[2] = test system: microorganisms with acquired resistance; assay: microbe, parasite or virus in culture; assay type: cell-based
[3] = test system: inherently resistant microorganisms; assay: microbe, parasite or virus in culture; assay type: cell-based; conditions: S. aureus
H. influenzae = assay: Agarose dilution assay (MIC); assay type: cell-based; conditions: H. influenzae strain HIN002
S. aureus = assay type: cell-based; conditions: for MIC, Peptide: unmodified parent peptide
[4] = A. baumannii ABI001, Tobramycin section
[5] = P. aeruginosa 23, Piperacillin section
[6] = P. aeruginosa PA032, Tobramycin section
[7] = S. aureus SA014 (also SA014 MRSA)
[8] = S. maltophilia SMA029, Tobramycin section
[9] = S. maltophilia SMA030, Tobramycin section
[10] = peptide + Piperacillin, P. aeruginosa 23
[11] = peptide + Tobramycin, A. baumannii ABI001
[12] = peptide + Tobramycin, P. aeruginosa PA032
[13] = peptide + Tobramycin, S. maltophilia SMA029
[14] = peptide + Tobramycin, S. maltophilia SMA030

ILKKWVWWPWRRK [MBI 11F3CN]
32 µg/mL: MIC, Peptide (E. faecalis; E. faecalis EFS001) | Peptide MIC Alone (bacterial isolates; [4]) | Piperacillin MIC + Peptide (bacterial isolates; S. aureus 19 MRSA) | Tobramycin MIC + Peptide (bacterial isolates; S. maltophilia SMA029) | Peptide MIC + Tobramycin (bacterial isolates; S. maltophilia SMA030) | Peptide MIC Alone [2, 4] | Peptide MIC Alone ([2]; A. calcoaceticus 3, Piperacillin section) | Peptide MIC Alone ([2]; S. maltophilia 2, Piperacillin section) | Peptide MIC + Tobramycin ([2]; S. maltophilia SMA029) | Peptide MIC + Tobramycin ([2]; S. maltophilia SMA030)
10%: % Survival ([1]; 18 mg/kg ip)
1.00: FIC (bacterial isolates; peptide + Tobramycin, A. baumannii ABI002) | FIC ([2]; peptide + Piperacillin, P. aeruginosa 7)
0.56: FIC (bacterial isolates; peptide + Tobramycin, S. haemolyticus SHA005)
8 µg/mL: MIC (E. faecalis; E. faecalis strain EFS002) | MIC (S. pyogenes) | Peptide MIC + Tobramycin (bacterial isolates; A. baumannii ABI002) | Peptide MIC Alone (bacterial isolates; S. aureus SB3MRSA, Piperacillin section) | MIC (E. coli; E. coli strain ECO002) | MIC, Peptide (S. aureus; S. aureus SA011) | MIC, Peptide (S. aureus; S. aureus SA014)
>128 µg/mL: MIC, Peptide (E. cloacae; E. cloacae ECL007, unmodified parent peptide) | MIC (E. cloacae; E. cloacae strain ECL007) | MIC, Peptide (S. marcescens; S. marcescens SMS003, unmodified parent peptide) | MIC (S. marcescens; S. marcescens strain SMS004) | MIC (S. pneumoniae; S. pneumoniae strain SBSPN3) | MIC (S. pneumoniae; S. pneumoniae strain SPN044) | Peptide MIC Alone (bacterial isolates; [6]) | Peptide MIC Alone [2, 6] | MIC (H. influenzae)
0.5 µg/mL: Tobramycin MIC + Peptide (bacterial isolates; A. baumannii ABI001) | Peptide MIC + Piperacillin (bacterial isolates; P. aeruginosa 23) | Tobramycin MIC + Peptide ([2]; A. baumannii ABI001) | Peptide MIC + Piperacillin ([2]; P. aeruginosa 23)
0.28: FIC (bacterial isolates; [13])
0.50: FIC (bacterial isolates; peptide + Piperacillin, S. aureus SB3MRSA) | FIC (bacterial isolates; [12]) | FIC [2, 12]
0.26: FIC (bacterial isolates; [14]) | FIC [2, 13] | FIC [2, 14]
0.25 µg/mL: Tobramycin MIC + Peptide (bacterial isolates; S. haemolyticus SHA005)
0.38: FIC (bacterial isolates; peptide + Piperacillin, S. aureus 19 MRSA)
0.75: FIC ([2]; peptide + Piperacillin, S. maltophilia 2)
90%: % Survival ([1]; 24 mg/kg ip)
0.51: FIC (bacterial isolates; [10]) | FIC (bacterial isolates; peptide + Tobramycin, S. aureus SA014 (also SA014 MRSA)) | FIC [2, 10] | FIC ([3]; peptide + Tobramycin)
128 µg/mL: Peptide MIC Alone (bacterial isolates; P. aeruginosa 41, Piperacillin section) | Peptide MIC Alone (bacterial isolates; [8]) | Peptide MIC Alone (bacterial isolates; [9]) | MIC, Peptide (P. aeruginosa; P. aeruginosa PA004, unmodified parent peptide) | MIC (P. aeruginosa; P. aeruginosa strain PA041) | Peptide MIC Alone ([2]; P. aeruginosa 7, Piperacillin section) | Peptide MIC Alone [2, 8] | Peptide MIC Alone [2, 9]
64 µg/mL: Piperacillin MIC + Peptide (bacterial isolates; P. aeruginosa 23) | Peptide MIC Alone (bacterial isolates; [5]) | Peptide MIC + Piperacillin (bacterial isolates; P. aeruginosa 41) | Peptide MIC + Tobramycin (bacterial isolates; P. aeruginosa PA032) | Piperacillin MIC + Peptide (bacterial isolates; S. aureus SB3MRSA) | MIC, Peptide (S. maltophilia; S. maltophilia SMA002, unmodified parent peptide) | MIC (S. maltophilia; S. maltophilia strain SMA002) | MIC, Peptide (K. pneumoniae; K. pneumoniae KP001, unmodified parent peptide) | MIC (K. pneumoniae; K. pneumoniae strain KP002) | Peptide MIC + Piperacillin ([2]; P. aeruginosa 7) | Piperacillin MIC + Peptide ([2]; P. aeruginosa 7) | Piperacillin MIC + Peptide ([2]; P. aeruginosa 23) | Peptide MIC Alone [2, 5] | Peptide MIC + Tobramycin ([2]; P. aeruginosa PA032)
0.63: FIC (bacterial isolates; peptide + Piperacillin, P. aeruginosa 41) | FIC ([2]; peptide + Piperacillin, A. calcoaceticus 3)
4 µg/mL: Piperacillin MIC + Peptide (bacterial isolates; P. aeruginosa 41) | Tobramycin MIC + Peptide (bacterial isolates; P. aeruginosa PA032) | Peptide MIC Alone (bacterial isolates; S. aureus 19 MRSA, Piperacillin section) | Peptide MIC Alone (bacterial isolates; S. aureus SA014 (also SA014 MRSA), Tobramycin section) | Peptide MIC Alone (bacterial isolates; S. haemolyticus SHA005, Tobramycin section) | Peptide MIC + Tobramycin (bacterial isolates; S. maltophilia SMA029) | MIC (A. calcoaceticus; A. calcoaceticus strain AC002) | MIC (E. faecium) | Peptide MIC + Piperacillin ([2]; A. calcoaceticus 3) | Tobramycin MIC + Peptide ([2]; P. aeruginosa PA032) | Peptide MIC Alone ([3]; Tobramycin section)
16 µg/mL: MIC, Peptide (E. faecalis; E. faecalis EFS004) | MIC, Peptide (E. faecalis; E. faecalis EFS008) | Peptide MIC + Tobramycin (bacterial isolates; A. baumannii ABI001) | Peptide MIC Alone (bacterial isolates; A. baumannii ABI002, Tobramycin section) | MIC, Peptide (E. coli; E. coli ECO005, unmodified parent peptide) | Peptide MIC + Tobramycin ([2]; A. baumannii ABI001) | Piperacillin MIC + Peptide ([2]; A. calcoaceticus 3) | Peptide MIC + Piperacillin ([2]; S. maltophilia 2) | Piperacillin MIC + Peptide ([2]; S. maltophilia 2) | MIC, Peptide (S. aureus; S. aureus SA018)
0%: % Survival ([1]; 12 mg/kg ip)
0.53: FIC (bacterial isolates; [11]) | FIC [2, 11]
2 µg/mL: Tobramycin MIC + Peptide (bacterial isolates; A. baumannii ABI002) | Peptide MIC + Tobramycin (bacterial isolates; [7]) | Tobramycin MIC + Peptide (bacterial isolates; [7]) | Peptide MIC + Piperacillin (bacterial isolates; S. aureus SB3MRSA) | Peptide MIC + Tobramycin (bacterial isolates; S. haemolyticus SHA005) | MIC (S. epidermidis) | MIC, Peptide (A. calcoaceticus; A. calcoaceticus AC002, unmodified parent peptide) | Peptide MIC + Tobramycin [3] | MIC, Peptide (S. aureus; S. aureus SA010) | MIC, Peptide (S. aureus; S. aureus SA025) | MIC (S. aureus; S. aureus strain SA005)
1 µg/mL: Tobramycin MIC + Peptide (bacterial isolates; S. maltophilia SMA030) | Tobramycin MIC + Peptide ([2]; S. maltophilia SMA029) | Tobramycin MIC + Peptide ([2]; S. maltophilia SMA030) | MIC, Peptide (S. aureus; S. aureus SA093)

Reference: patent publication US20020035061A1, “COMPOSITIONS AND METHODS FOR TREATING INFECTIONS USING CATIONIC PEPTIDES ALONE OR IN COMBINATION WITH ANTIBIOTICS” (priority 1996, published 2002)
